Values joined by “and” are separate entries in the source; they are usually repeats but may differ in a detail not shown here. Equal entries are not always repeated.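 Following 48 hours of exposure in 96-well plates, responses at five concentrations were used to interpolate endpoints linearly. GI50 = concentration required for 50% inhibition of growth. The concentration for full growth arrest is given as TGI.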
Key:
Assay in all cases: NCI anticancer screen, dose series, 48 h
[1] = system: SN12C renal
[2] = system: SK-MEL-2 melanoma
[3] = system: M14 melanoma
[4] = system: OVCAR-8 ovarian
[5] = system: SW-620 colon
[6] = system: HOP-62 NSCLC
[7] = system: PC-3 prostate
[8] = system: OVCAR-4 ovarian
[9] = system: SNB-75 CNS
[10] = system: DU-145 prostate

Compound | GI50 [1] | TGI [1] | GI50 [2] | TGI [2] | GI50 [3] | TGI [3] | GI50 [4] | TGI [4] | GI50 [5] | TGI [5] | GI50 [6] | TGI [6] | GI50 [7] | TGI [7] | GI50 [8] | TGI [8] | GI50 [9] | TGI [9] | GI50 [10] | TGI [10]
N#Cc1ccc(C#Cc2ccccc2C#CCCCCO)cc1 | 17.7 µM | 31.8 µM | 17.1 µM | 36.4 µM | 17.3 µM | 31.5 µM | 18.6 µM | 35.5 µM | 17.4 µM | 35 µM | 11.7 µM | 24 µM | 15.6 µM | 28.9 µM | 26.2 µM | 65.9 µM | 42.2 µM | > 100 µM | 16 µM | 29.8 µM
COc1cccc(-c2cc(=O)c3cc(N(C)C)ccc3[nH]2)c1 |  | > 100 µM | 0.0359 µM and 0.00735 µM |  | 0.0234 µM and 0.00682 µM | > 100 µM |  | 94.6 nM [middle of 4 runs] | 0.0173 µM and 0.00382 µM | > 100 µM |  | > 100 µM | 0.0275 µM and 0.00806 µM | > 100 µM |  | > 100 µM | 0.0271 µM and 0.00869 µM | > 100 µM | 0.034 µM and 0.0073 µM | 0.302 µM and 0.369 µM and 0.8 µM
O=C(O)CCCCC(CCSCc1ccccc1)SCc1ccccc1 (stereo unspecified) | 41.4 µM | > 100 µM | 27.5 µM | 67.6 µM | 55.4 µM | > 100 µM | > 63.6 µM | > 100 µM | > 70 µM | > 100 µM | 68.6 µM | > 100 µM | 49.1 µM | > 100 µM | 70.2 µM | > 100 µM | > 100 µM | > 100 µM | > 71.2 µM | > 100 µM
Cc1ccc(S(=O)(=O)N(CCOc2ccc(/C(N)=N/Cl)cc2)CCOc2ccc(/C(N)=N\Cl)cc2)cc1 | 5.52 µM | > 100 µM | > 100 µM | > 100 µM | 35.1 µM | > 100 µM | 12 µM | > 100 µM | 26.9 µM | > 100 µM | 12 µM | 33.2 µM | 33.7 µM | > 100 µM | 16.7 µM | > 100 µM | 4.92 µM | 20.1 µM | 16.1 µM | 48 µM
COc1cccc(/C=N/NC(=O)c2ccccc2Nc2ccnc(C(F)(F)F)c2)c1O | 0.783 µM | > 73.7 µM | 2.13 µM | > 44 µM | 0.375 µM | > 23.2 µM | 0.319 µM | > 38 µM | 0.918 µM | > 70.1 µM | 0.431 µM | > 53.6 µM | 1.47 µM | > 33.1 µM | 0.0822 µM |  | 1.62 µM | > 76.5 µM | 0.543 µM | > 47 µM
CN(C)CCC(=O)N1C/C(=C/c2ccccc2)C(=O)/C(=C\c2ccccc2)C1 |  | 3.84 µM |  | 8.74 µM |  | 6.53 µM |  | 7.58 µM |  | 1.22 µM |  | 16 µM |  | 4.2 µM |  | 7.98 µM |  | 15.1 µM |  | 18.5 µM
Cc1cc(N(CCOS(C)(=O)=O)CCOS(C)(=O)=O)ccc1C=Nc1ccc(-c2nc(Cc3ccccc3)sc2C)cc1 |  | 26.3 µM |  | 34.9 µM |  | 20.7 µM |  | 41.8 µM |  | 45.4 µM |  | 20.8 µM |  | 22.1 µM |  | 36.8 µM |  | 12.3 µM |  | 11.7 µM
O=C(Nc1ccc(N2CCNCC2)cc1)c1[nH]ncc1Nc1cc(Oc2ccccc2)ncn1 | 3.19 µM | 9.31 µM | 3.82 µM | 15.3 µM | 1.55 µM | 3.19 µM | 2.91 µM | 12.2 µM | 0.514 µM | 1.94 µM | 2.24 µM | 6.05 µM | 1.47 µM | 3.2 µM | 2.59 µM |  | 2.45 µM | 5.6 µM | 3.03 µM | 11.2 µM
O=C(CN1CCOCC1)Nc1ccc(Cn2nnc3c2C(=O)c2nnn(Cc4ccc(NC(=O)CN5CCOCC5)cc4)c2C3=O)cc1 | 0.259 µM | 0.733 µM | 0.438 µM | 1.72 µM | 0.596 µM | 1.88 µM | 0.358 µM | 1.33 µM | 0.366 µM | 1.75 µM | 1.64 µM | 3.46 µM | 0.644 µM | 5.63 µM | 0.303 µM | 1.52 µM | 1.66 µM | 3.04 µM | 1.38 µM | 2.7 µM
CC1=C(CCCNS(C)(=O)=O)C2=C(C)C3(CC3)[C@@](C)(O)C(=O)C2=C1 | 1.78 µM | > 100 µM | 1.67 µM | 4.13 µM | 0.807 µM | 2.75 µM | 0.518 µM | 5.36 µM | 55.5 µM | > 100 µM | 0.421 µM | 2.33 µM | 1.68 µM | > 100 µM | 0.9 µM | 5.32 µM | 0.342 µM | 1.67 µM | 0.369 µM | 17.4 µM
O=NN(Cc1ccc(Cl)cc1)C(C(=O)O)c1ccccc1 (stereo unspecified) |  | > 100 µM |  | > 100 µM |  | > 100 µM |  | > 100 µM |  | > 100 µM |  | > 100 µM |  | > 100 µM |  | > 100 µM |  | > 100 µM |  | > 100 µM
CCOc1cccc(/C=N/NC(=O)c2ccccc2Nc2ccnc(C(F)(F)F)c2)c1O | 0.989 µM | > 94.9 µM | 3.4 µM | > 50.4 µM | 0.661 µM | 2.91 µM | 0.449 µM | > 100 µM | 1.23 µM | > 100 µM | 0.901 µM | > 53.8 µM | 0.428 µM | > 39.1 µM | 0.18 µM |  | 2.09 µM | > 77.9 µM | 0.63 µM | > 100 µM
Cc1c(C(=O)N/N=C/c2ccc(Cl)cc2)nnn1-c1ccnc2c(C(F)(F)F)cccc12 | 3.51 µM | 15.5 µM | 18.1 µM | 54.9 µM | 4.45 µM | 18.9 µM | 2.25 µM | 4.71 µM | 5.09 µM | 47.6 µM | 5.01 µM | 17.3 µM | 3.04 µM | 11.3 µM | 2.9 µM | 6.08 µM | 2.63 µM | 5.18 µM | 4.89 µM | 20.5 µM
Nc1ccn(C2O[C@H](CO)[C@@H](O)[C@@H]2O)c(=O)n1 (stereo partly specified) |  | > 100 µM |  | > 100 µM | 22.3 µM | > 100 µM | 53.8 µM | > 100 µM |  | > 100 µM | 64.3 µM | > 100 µM |  | > 100 µM |  | > 100 µM | 41.5 µM | > 100 µM |  | > 100 µM
Cc1ccc(CS/C(=C\c2ccc([N+](=O)[O-])cc2)C(=O)c2ccc(F)cc2)cc1 | 2.98 µM | 9.48 µM | 15.3 µM | 40.5 µM | 3.07 µM | 15.6 µM | 3.42 µM | 19.4 µM | 1.67 µM | 3.71 µM | 11.5 µM | 29.2 µM | 2.36 µM | 6.2 µM | 3.04 µM | 13.3 µM | 19.2 µM | 71.8 µM | 21.1 µM | > 100 µM
